How the values were obtained:
Experiment in all cases: cells
Set-up in all cases: species or system NCI human tumour cell line panel; NCI one-dose anti-proliferative screen, human tumour cell line panel, growth inhibition percent (GI%)
SK-OV-3 = conditions: Homo sapiens, SK-OV-3; growth inhibition (GI%), single dose
Protocol: (§1) Ten of the newly synthesised 1,2,3-triazolo benzenesulfonamide derivatives were selected by NCI (Bethesda, MD) for evaluating their anti-proliferative activity. The selected compounds were subjected to a primary in vitro one-dose ([…]) anti-proliferative assay against 57 human tumour cell lines following the previously reported method[30] and their obtained growth inhibition percent (GI%) are presented in Table 2. A subset of ten triazolo-benzenesulfonamides (3, 5, 6, 7, 9, 11, 16–18, and 20) were selected and subjected to an in vitro anti-proliferative screening against a panel of 57 cancer cell lines at NCI at an initial high dose ([…]). The human cell lines used were derived from nine cancer types: leukaemia, lung, colon, CNS, melanoma, ovarian, renal, prostate and breast cancers.

NCI-H522 = conditions: Homo sapiens, NCI-H522; growth inhibition (GI%), single dose
Protocol: as §1

HCT-116 = conditions: Homo sapiens, HCT-116; growth inhibition (GI%), single dose
Protocol: as §1

SNB-19 = conditions: Homo sapiens, SNB-19; growth inhibition (GI%), single dose
Protocol: as §1

HT29 = conditions: Homo sapiens, HT-29; growth inhibition (GI%), single dose
Protocol: as §1

SNB-75 = conditions: Homo sapiens, SNB-75; growth inhibition (GI%), single dose
Protocol: as §1

HOP-62 = conditions: Homo sapiens, HOP-62; growth inhibition (GI%), single dose
Protocol: as §1

MCF7 = conditions: Homo sapiens, MCF7; growth inhibition (GI%), single dose
Protocol: as §1

SN12C = conditions: Homo sapiens, SN12C; growth inhibition (GI%), single dose
Protocol: as §1

EKVX = conditions: Homo sapiens, EKVX; growth inhibition (GI%), single dose
Protocol: as §1

T-47D = conditions: Homo sapiens, T47D; growth inhibition (GI%), single dose
Protocol: as §1

A549/ATCC = conditions: Homo sapiens, A549; growth inhibition (GI%), single dose
Protocol: as §1

MOLT-4 = conditions: Homo sapiens, MOLT-4; growth inhibition (GI%), single dose
Protocol: as §1

UO-31 = conditions: Homo sapiens, UO-31; growth inhibition (GI%), single dose
Protocol: as §1

U251 = conditions: Homo sapiens, U-251; growth inhibition (GI%), single dose
Protocol: as §1

NCI-H322M = conditions: Homo sapiens, NCI-H322M; growth inhibition (GI%), single dose
Protocol: as §1

UACC-257 = conditions: Homo sapiens, UACC-257; growth inhibition (GI%), single dose
Protocol: as §1

LOX IMVI = conditions: Homo sapiens, LOX IMVI; growth inhibition (GI%), single dose
Protocol: as §1

NCI-H226 = conditions: Homo sapiens, NCI-H226; growth inhibition (GI%), single dose
Protocol: as §1

A498 = conditions: Homo sapiens, A498; growth inhibition (GI%), single dose
Protocol: as §1

Row | Compound | inhibition at 10 µM (SK-OV-3) | inhibition at 10 µM (NCI-H522) | inhibition at 10 µM (HCT-116) | inhibition at 10 µM (SNB-19) | inhibition at 10 µM (HT29) | inhibition at 10 µM (SNB-75) | inhibition at 10 µM (HOP-62) | inhibition at 10 µM (MCF7) | inhibition at 10 µM (SN12C) | inhibition at 10 µM (EKVX) | inhibition at 10 µM (T-47D) | inhibition at 10 µM (A549/ATCC) | inhibition at 10 µM (MOLT-4) | inhibition at 10 µM (UO-31) | inhibition at 10 µM (U251) | inhibition at 10 µM (NCI-H322M) | inhibition at 10 µM (UACC-257) | inhibition at 10 µM (LOX IMVI) | inhibition at 10 µM (NCI-H226) | inhibition at 10 µM (A498)
1 | N#Cc1nnn(-c2ccc(S(N)(=O)=O)cc2)c1NS(=O)(=O)c1ccccc1 [compound 11, N-(4-cyano-1-(4-sulfamoylphenyl)-1H-1,2,3-triazol-5-yl)benzenesulfonamide] | 15.1% | 10.3% | 2.1% | 2.8% | 5.1% | 10.2% | 4.2% | 1.7% | 1.6% | 2% | 9.6% | 11.8% | 11.2% | 13.4% | 10.9% | 2.6% | 8.1% | – | – | –
2 | CCn1c(=S)[nH]c2c(nnn2-c2ccc(S(N)(=O)=O)cc2)c1=N [compound 20, 4-(6-ethyl-7-imino-5-thioxo-4,5,6,7-tetrahydro-3H-[1,2,3]triazolo[4,5-d]pyrimidin-3-yl)benzenesulfonamide] | 3.6% | 7.8% | – | 1.9% | – | 3.3% | – | 4.9% | 0.9% | 3.1% | – | 12.2% | 9.1% | 7.3% | 1.9% | 3.2% | 6.2% | 4.6% | 6.9% | 6.2%
3 | Nc1nc(=S)[nH]c2c1nnn2-c1ccc(S(N)(=O)=O)cc1 [compound 18, 4-(7-amino-5-thioxo-4,5-dihydro-3H-[1,2,3]triazolo[4,5-d]pyrimidin-3-yl)benzenesulfonamide] | 11.6% | 13.7% | – | 1.7% | 10.8% | 13.9% | 4.8% | 2.9% | 1.2% | 3.7% | 5.8% | 5.1% | 21.3% | 13.8% | – | 2.2% | 6.1% | 7.5% | 9.8% | 5.5%
4 | N#Cc1nnn(-c2ccc(S(N)(=O)=O)cc2)c1N [compound 3, 3] | 4.6% | 9.7% | 7.1% | 2.9% | 9.4% | 15% | 8% | 5.5% | 1.1% | 8.7% | 5.1% | 4.2% | 13.3% | 14.5% | 0.6% | 0% | 10.2% | 6.1% | 5.2% | 13.6%
5 | N#Cc1nnn(-c2ccc(S(N)(=O)=O)cc2)c1/N=C/c1ccc(Cl)cc1 [compound 9, 9] | 9.9% | 10.5% | 1.2% | – | 0.4% | 2.9% | 0.1% | 4.7% | – | 4.2% | 11.5% | 16.1% | 6.9% | 0.3% | 4.7% | – | 2.3% | – | 4.8% | 8.6%
6 | N#Cc1nnn(-c2ccc(S(N)(=O)=O)cc2)c1NCC(=O)c1ccccc1 [compound 7, 7] | 8.2% | 16.1% | 5.1% | 7.8% | 4.5% | 20.1% | 8.3% | 6.7% | 2.9% | 9.2% | 4.6% | 6.7% | 10.2% | 21.1% | 6.4% | 8.8% | 11.7% | 5.9% | 11.8% | –
7 | CN(C)c1ccc(-c2nc3c(nnn3-c3ccc(S(N)(=O)=O)cc3)c(N)c2C#N)cc1 [compound 17, 4-(7-amino-6-cyano-5-(4-(dimethylamino)phenyl)-3H-[1,2,3]triazolo[4,5-b]pyridin-3-yl)benzenesulfonamide] | 12.3% | 14.8% | 3.6% | 0.8% | 3.3% | 21.6% | 21.7% | 7.3% | 4.7% | 17.2% | 5.2% | 16.3% | 2.3% | 29.9% | 12.6% | 3.9% | 8.4% | 9.6% | 16.9% | 1.8%
8 | N#Cc1c(-c2ccc(Cl)cc2)nc2c(nnn2-c2ccc(S(N)(=O)=O)cc2)c1N [compound 16, 4-(7-amino-5-(4-chlorophenyl)-6-cyano-3H-[1,2,3]triazolo[4,5-b]pyridin-3-yl)benzenesulfonamide] | 9.7% | 9.8% | 4.6% | 3.4% | 1.2% | 20% | 7.3% | 13.6% | 8.9% | 39.5% | 5.6% | 8.6% | 17.6% | 25% | 2.7% | – | 6.9% | 20.4% | 9.8% | 17.6%
